Source: the supplement of paper PMC10307832

Columns and labels:
Experiment in all cases: relative viability (nuclei count vs DMSO), 5 days (fraction); higher = more cells survive
Linsitinib + Foretinib = compound: C[C@]1(O)C[C@@H](c2nc(-c3ccc4ccc(-c5ccccc5)nc4c3)c3c(N)nccn32)C1 [Linsitinib] + COc1cc2c(Oc3ccc(NC(=O)C4(C(=O)Nc5ccc(F)cc5)CC4)cc3F)ccnc2cc1OCCCN1CCOCC1 [Foretinib] (partner 0.25 µM)
Method in brief: (§1)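 Relative viability equals treated-well nuclei counts divided by vehicle-well nuclei counts. Counts came from 4× images of lung cancer cell lines grown in 1536-well plates for 5 days after pin-tool dosing on the day after seeding. Dosing used one drug alone or a fixed anchor-drug dose plus five library-drug doses (not always all listed) in √10 steps, and values are medians of duplicate plates.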

Linsitinib + Pictilisib = compound: C[C@]1(O)C[C@@H](c2nc(-c3ccc4ccc(-c5ccccc5)nc4c3)c3c(N)nccn32)C1 [Linsitinib] + CS(=O)(=O)N1CCN(Cc2cc3nc(-c4cccc5[nH]ncc45)nc(N4CCOCC4)c3s2)CC1 [Pictilisib] (partner 1 µM)
Method in brief: as §1

Ispinesib + Dasatinib = compound: Cc1ccc(C(=O)N(CCCN)[C@@H](c2nc3cc(Cl)ccc3c(=O)n2Cc2ccccc2)C(C)C)cc1 [Ispinesib] + Cc1nc(Nc2ncc(C(=O)Nc3c(C)cccc3Cl)s2)cc(N2CCN(CCO)CC2)n1 [Dasatinib] (partner 0.075 µM)
Method in brief: as §1

Ispinesib + Phenformin = compound: Cc1ccc(C(=O)N(CCCN)[C@@H](c2nc3cc(Cl)ccc3c(=O)n2Cc2ccccc2)C(C)C)cc1 [Ispinesib] + N=C(N)NC(=N)NCCc1ccccc1 [Phenformin] (partner 250 µM)
Method in brief: as §1

Cell Line | relative viability (Linsitinib + Foretinib; first compound 0.01 µM) | relative viability (Linsitinib + Foretinib; first compound 0.03162 µM) | relative viability (Linsitinib + Foretinib; first compound 0.1 µM) | relative viability (Linsitinib + Foretinib; first compound 0.3162 µM) | relative viability (Linsitinib + Foretinib; first compound 1 µM) | relative viability (Linsitinib + Pictilisib; first compound 0.01 µM) | relative viability (Linsitinib + Pictilisib; first compound 0.03162 µM) | relative viability (Linsitinib + Pictilisib; first compound 0.1 µM) | relative viability (Linsitinib + Pictilisib; first compound 0.3162 µM) | relative viability (Linsitinib + Pictilisib; first compound 1 µM) | relative viability (Ispinesib + Dasatinib; first compound 0.001 µM) | relative viability (Ispinesib + Dasatinib; first compound 0.003162 µM) | relative viability (Ispinesib + Dasatinib; first compound 0.01 µM) | relative viability (Ispinesib + Dasatinib; first compound 0.03162 µM) | relative viability (Ispinesib + Dasatinib; first compound 0.1 µM) | relative viability (Ispinesib + Phenformin; first compound 0.001 µM) | relative viability (Ispinesib + Phenformin; first compound 0.003162 µM) | relative viability (Ispinesib + Phenformin; first compound 0.01 µM) | relative viability (Ispinesib + Phenformin; first compound 0.03162 µM) | relative viability (Ispinesib + Phenformin; first compound 0.1 µM)
201T | 1.19 | 1.15 | 1.07 | 1.2 | 0.82 | 0.706 | 0.703 | 0.688 | 0.616 | 0.534 | 0.538 | 0.599 | 0.735 | 0.56 | 0.307 | 0.462 | 0.533 | 0.559 | 0.427 | 0.24
LC-2-ad | 0.983 | 0.979 | 0.858 | 0.738 | 0.671 | 0.423 | 0.369 | 0.409 | 0.396 | 0.269 | 0.566 | 0.716 | 0.737 | 0.318 | 0.133 | 0.646 | 0.638 | 0.611 | 0.285 | 0.207
LCLC-97TM1 | 0.971 | 0.95 | 0.879 | 0.832 | 0.823 | 0.283 | 0.254 | 0.208 | 0.117 | 0.154 | 0.86 | 0.825 | 1.03 | 0.631 | 0.221 | 0.356 | 0.435 | 0.486 | 0.336 | 0.129
NCI-H1915 | 1.13 | 1.08 | 1.08 | 0.986 | 0.923 | 0.996 | 0.943 | 0.97 | 0.726 | 0.522 | 0.304 | 0.312 | 0.38 | 0.25 | 0.137 | 0.413 | 0.372 | 0.392 | 0.165 | 0.176
NCI-H3122 | 0.913 | 0.945 | 0.978 | 0.874 | 0.907 | 0.601 | 0.58 | 0.572 | 0.499 | 0.399 | 0.944 | 0.917 | 0.973 | 0.759 | 0.127 | 0.384 | 0.408 | 0.856 | 0.197 | 0.108
NCI-H1650 | 1.2 | 0.902 | 1.12 | 0.697 | 1.03 | 0.529 | 0.485 | 0.556 | 0.138 | 0.356 | 0.35 | 0.353 | 0.349 | 0.186 | 0.151 | 0.512 | 0.467 | 0.407 | 0.182 | 0.305
NCI-H1993 | 0.753 | 0.724 | 0.653 | 0.759 | 0.657 | 0.831 | 0.832 | 0.843 | 0.643 | 0.896 | 0.617 | 0.373 | 0.634 | 0.548 | 0.584 | 0.537 | 0.483 | 0.543 | 0.518 | 0.436
NCI-H2405 | 1.01 | 1.04 | 1.06 | 0.965 | 0.813 | 0.428 | 0.329 | 0.43 | 0.69 | 0.332 | 0.208 | 0.223 | 0.656 | 0.184 | 0.247 | 0.41 | 0.408 | 0.705 | 0.361 | 0.289
NCI-H661 | 0.974 | 1.07 | 1.01 | 0.932 | 1 | – | 0.375 | 0.329 | 0.464 | 0.332 | 0.999 | 0.982 | 0.921 | 0.353 | 0.251 | 0.288 | 0.299 | 0.224 | 0.195 | 0.216
